Assay results taken from PubChem BioAssay AID1918939 (Molecular Pharmacology Branch, DTP, NCI, 2023).

Tested on: 653999-131-R-J2-PDC complex spheroid viability
Experiment: Anticancer human tumor 653999-131-R-J2-PDC patient-derived lung adenocarcinoma cell line growth inhibition
Conditions: for IC50: curve of first compound; for viability, T/C: stronger effect = lower value
Summary of the method: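 Multicellular complex spheroids of tumor cells with human endothelial cells (HUVEC) and mesenchymal stem cells; the LSD1 inhibitor iadademstat was combined with standard-of-care or investigational agents. Top concentration at or near clinical Cmax, half-log dilutions; final DMSO ≤0.25%.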

[1] = second compound 0.1 µM, first compound 0.000316 µM
[2] = second compound 0.1 µM, first compound 0.001 µM
[3] = second compound 0.1 µM, first compound 0.00316 µM
[4] = second compound 0.1 µM, first compound 0.01 µM
[5] = second compound 0.1 µM, first compound 0.0316 µM
[6] = second compound 0.1 µM, first compound 0.1 µM
[7] = second compound 0.316 µM, first compound 0.000316 µM
[8] = second compound 0.316 µM, first compound 0.001 µM
[9] = second compound 0.316 µM, first compound 0.00316 µM
[10] = second compound 0.316 µM, first compound 0.01 µM
[11] = second compound 0.316 µM, first compound 0.0316 µM
[12] = second compound 0.316 µM, first compound 0.1 µM
[13] = second compound 1 µM, first compound 0.000316 µM
[14] = second compound 1 µM, first compound 0.001 µM
[15] = second compound 1 µM, first compound 0.00316 µM
[16] = second compound 1 µM, first compound 0.01 µM
[17] = second compound 1 µM, first compound 0.0316 µM
[18] = second compound 1 µM, first compound 0.1 µM
[19] = second compound 3.16 µM, first compound 0.000316 µM
[20] = second compound 3.16 µM, first compound 0.001 µM
[21] = second compound 3.16 µM, first compound 0.00316 µM
[22] = second compound 3.16 µM, first compound 0.01 µM
[23] = second compound 3.16 µM, first compound 0.0316 µM
[24] = second compound 3.16 µM, first compound 0.1 µM
[25] = second compound 10 µM, first compound 0.000316 µM
[26] = second compound 10 µM, first compound 0.001 µM
[27] = second compound 10 µM, first compound 0.00316 µM
[28] = second compound 10 µM, first compound 0.01 µM
[29] = second compound 10 µM, first compound 0.0316 µM
[30] = second compound 10 µM, first compound 0.1 µM
[31] = second compound 0.1 µM, first compound 0.00949 µM
[32] = second compound 0.1 µM, first compound 0.03 µM
[33] = second compound 0.1 µM, first compound 0.0949 µM
[34] = second compound 0.1 µM, first compound 0.3 µM
[35] = second compound 0.316 µM, first compound 0.00949 µM
[36] = second compound 0.316 µM, first compound 0.03 µM
[37] = second compound 0.316 µM, first compound 0.0949 µM
[38] = second compound 0.316 µM, first compound 0.3 µM
[39] = second compound 1 µM, first compound 0.00949 µM
[40] = second compound 1 µM, first compound 0.03 µM
[41] = second compound 1 µM, first compound 0.0949 µM
[42] = second compound 1 µM, first compound 0.3 µM
[43] = second compound 3.16 µM, first compound 0.00949 µM
[44] = second compound 3.16 µM, first compound 0.03 µM
[45] = second compound 3.16 µM, first compound 0.0949 µM
[46] = second compound 3.16 µM, first compound 0.3 µM
[47] = second compound 10 µM, first compound 0.00949 µM
[48] = second compound 10 µM, first compound 0.03 µM
[49] = second compound 10 µM, first compound 0.0949 µM
[50] = second compound 10 µM, first compound 0.3 µM
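Also: spheroids exposed to agents for seven days before readout.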

Structure (SMILES): CC(C)CC(NC(=O)C(Cc1ccccc1)NC(=O)c1cnccn1)B(O)O (stereo not given) + NC1CCC(NC2CC2c2ccccc2)CC1
- IC50 (second compound 0.1 µM): 2.28 nM
- IC50 (second compound 0.316 µM): 2.47 nM
- IC50 (second compound 1 µM): 2.96 nM
- IC50 (second compound 3.16 µM): 2.31 nM
- IC50 (second compound 10 µM): 2.2 nM
- viability, T/C [1]: 108%
- viability, T/C [2]: 107%
- viability, T/C [3]: 27.5%
- viability, T/C [4]: 3.82%
- viability, T/C [5]: 2.01%
- viability, T/C [6]: 1.51%
- viability, T/C [7]: 123%
- viability, T/C [8]: 124%
- viability, T/C [9]: 30.1%
- viability, T/C [10]: 5.95%
- viability, T/C [11]: 0.76%
- viability, T/C [12]: 1.38%
- viability, T/C [13]: 115%
- viability, T/C [14]: 115%
- viability, T/C [15]: 46.1%
- viability, T/C [16]: 4.39%
- viability, T/C [17]: 1.9%
- viability, T/C [18]: 1.12%
- viability, T/C [19]: 97.6%
- viability, T/C [20]: 123%
- viability, T/C [21]: 27.4%
- viability, T/C [22]: 3.37%
- viability, T/C [23]: 1.02%
- viability, T/C [24]: 2.22%
- viability, T/C [25]: 117%
- viability, T/C [26]: 119%
- viability, T/C [27]: 18.5%
- viability, T/C [28]: 2.92%
- viability, T/C [29]: 1.36%
- viability, T/C [30]: 0.56%

Structure (SMILES): CC(C)CC(NC(=O)CNC(=O)c1cc(Cl)ccc1Cl)B1OC(=O)CC(CC(=O)O)(C(=O)O)O1 (stereo not given) + NC1CCC(NC2CC2c2ccccc2)CC1
- IC50 (second compound 0.1 µM): 9.68 nM
- IC50 (second compound 0.316 µM): 13.9 nM
- IC50 (second compound 1 µM): 10.9 nM
- IC50 (second compound 3.16 µM): 11.1 nM
- IC50 (second compound 10 µM): 11.5 nM
- viability, T/C [1]: 98.5%
- viability, T/C [2]: 102%
- viability, T/C [3]: 106%
- viability, T/C [4]: 48.4%
- viability, T/C [5]: 28.5%
- viability, T/C [6]: 10.7%
- viability, T/C [7]: 80.7%
- viability, T/C [8]: 102%
- viability, T/C [9]: 99%
- viability, T/C [10]: 60.4%
- viability, T/C [11]: 21.9%
- viability, T/C [12]: 8.68%
- viability, T/C [13]: 87.8%
- viability, T/C [14]: 90.5%
- viability, T/C [15]: 95.8%
- viability, T/C [16]: 52.7%
- viability, T/C [17]: 19.4%
- viability, T/C [18]: 10.1%
- viability, T/C [19]: 99.1%
- viability, T/C [20]: 85.4%
- viability, T/C [21]: 106%
- viability, T/C [22]: 53.1%
- viability, T/C [23]: 26.5%
- viability, T/C [24]: 9.89%
- viability, T/C [25]: 98.2%
- viability, T/C [26]: 104%
- viability, T/C [27]: 122%
- viability, T/C [28]: 55.4%
- viability, T/C [29]: 18.4%
- viability, T/C [30]: 5%

Structure (SMILES): CCc1c2c(nc3ccc(O)cc13)-c1cc3c(c(=O)n1C2)COC(=O)[C@]3(O)CC + NC1CCC(NC2CC2c2ccccc2)CC1
- IC50 (second compound 0.1 µM): < 0.949 nM
- IC50 (second compound 0.316 µM): < 0.949 nM
- IC50 (second compound 1 µM): < 0.949 nM
- IC50 (second compound 3.16 µM): < 0.949 nM
- IC50 (second compound 10 µM): < 0.949 nM
- viability, T/C (second compound 0.1 µM, first compound 0.000949 µM): 22%
- viability, T/C (second compound 0.1 µM, first compound 0.003 µM): 13.8%
- viability, T/C [31]: 11.8%
- viability, T/C [32]: 7.96%
- viability, T/C [33]: 5.01%
- viability, T/C [34]: 5%
- viability, T/C (second compound 0.316 µM, first compound 0.000949 µM): 19.8%
- viability, T/C (second compound 0.316 µM, first compound 0.003 µM): 15.9%
- viability, T/C [35]: 9.62%
- viability, T/C [36]: 7.91%
- viability, T/C [37]: 3.58%
- viability, T/C [38]: 6.63%
- viability, T/C (second compound 1 µM, first compound 0.000949 µM): 21.6%
- viability, T/C (second compound 1 µM, first compound 0.003 µM): 15.2%
- viability, T/C [39]: 9.88%
- viability, T/C [40]: 7.86%
- viability, T/C [41]: 4.29%
- viability, T/C [42]: 4.06%
- viability, T/C (second compound 3.16 µM, first compound 0.000949 µM): 22.2%
- viability, T/C (second compound 3.16 µM, first compound 0.003 µM): 17.5%
- viability, T/C [43]: 12.6%
- viability, T/C [44]: 7.56%
- viability, T/C [45]: 4.32%
- viability, T/C [46]: 3.82%
- viability, T/C (second compound 10 µM, first compound 0.000949 µM): 25.5%
- viability, T/C (second compound 10 µM, first compound 0.003 µM): 15.8%
- viability, T/C [47]: 9.94%
- viability, T/C [48]: 6.03%
- viability, T/C [49]: 2.71%
- viability, T/C [50]: 2.44%

Structure (SMILES): Nc1ccccc1NC(=O)c1ccc(CNC(=O)OCc2cccnc2)cc1 + NC1CCC(NC2CC2c2ccccc2)CC1
- IC50 (second compound 0.1 µM): 349 nM
- IC50 (second compound 0.316 µM): 228 nM
- IC50 (second compound 1 µM): 394 nM
- IC50 (second compound 3.16 µM): 294 nM
- IC50 (second compound 10 µM): 301 nM
- viability, T/C [31]: 68.4%
- viability, T/C [32]: 68.1%
- viability, T/C [33]: 57.1%
- viability, T/C [34]: 54.3%
- viability, T/C (second compound 0.1 µM, first compound 0.949 µM): 35.8%
- viability, T/C (second compound 0.1 µM, first compound 3 µM): 9.78%
- viability, T/C [35]: 70.5%
- viability, T/C [36]: 61.3%
- viability, T/C [37]: 56.1%
- viability, T/C [38]: 49%
- viability, T/C (second compound 0.316 µM, first compound 0.949 µM): 33.2%
- viability, T/C (second compound 0.316 µM, first compound 3 µM): 8.88%
- viability, T/C [39]: 75.3%
- viability, T/C [40]: 69.7%
- viability, T/C [41]: 65.1%
- viability, T/C [42]: 52.4%
- viability, T/C (second compound 1 µM, first compound 0.949 µM): 38.5%
- viability, T/C (second compound 1 µM, first compound 3 µM): 8.55%
- viability, T/C [43]: 69.6%
- viability, T/C [44]: 77.9%
- viability, T/C [45]: 57.1%
- viability, T/C [46]: 46.9%
- viability, T/C (second compound 3.16 µM, first compound 0.949 µM): 36.3%
- viability, T/C (second compound 3.16 µM, first compound 3 µM): 8.4%
- viability, T/C [47]: 74.6%
- viability, T/C [48]: 62%
- viability, T/C [49]: 54.6%
- viability, T/C [50]: 57.4%
- viability, T/C (second compound 10 µM, first compound 0.949 µM): 30.8%
- viability, T/C (second compound 10 µM, first compound 3 µM): 5.06%

Structure (SMILES): O=C(c1cc(Cc2n[nH]c(=O)c3ccccc23)ccc1F)N1CCN(C(=O)C2CC2)CC1 + NC1CCC(NC2CC2c2ccccc2)CC1
- IC50 (second compound 0.1 µM): > 10000 nM
- IC50 (second compound 0.316 µM): > 10000 nM
- IC50 (second compound 1 µM): > 10000 nM
- IC50 (second compound 3.16 µM): > 10000 nM
- IC50 (second compound 10 µM): > 10000 nM
- viability, T/C [5]: 86.2%
- viability, T/C [6]: 94.2%
- viability, T/C (second compound 0.1 µM, first compound 0.316 µM): 80.7%
- viability, T/C (second compound 0.1 µM, first compound 1 µM): 87.7%
- viability, T/C (second compound 0.1 µM, first compound 3.16 µM): 81.6%
- viability, T/C (second compound 0.1 µM, first compound 10 µM): 57.6%
- viability, T/C [11]: 99.5%
- viability, T/C [12]: 93.6%
- viability, T/C (second compound 0.316 µM, first compound 0.316 µM): 98.3%
- viability, T/C (second compound 0.316 µM, first compound 1 µM): 84.6%
- viability, T/C (second compound 0.316 µM, first compound 3.16 µM): 70.1%
- viability, T/C (second compound 0.316 µM, first compound 10 µM): 53%
- viability, T/C [17]: 103%
- viability, T/C [18]: 92.5%
- viability, T/C (second compound 1 µM, first compound 0.316 µM): 109%
- viability, T/C (second compound 1 µM, first compound 1 µM): 81%
- viability, T/C (second compound 1 µM, first compound 3.16 µM): 71.5%
- viability, T/C (second compound 1 µM, first compound 10 µM): 56.9%
- viability, T/C [23]: 91.3%
- viability, T/C [24]: 104%
- viability, T/C (second compound 3.16 µM, first compound 0.316 µM): 84.8%
- viability, T/C (second compound 3.16 µM, first compound 1 µM): 84.7%
- viability, T/C (second compound 3.16 µM, first compound 3.16 µM): 85.1%
- viability, T/C (second compound 3.16 µM, first compound 10 µM): 58.5%
- viability, T/C [29]: 113%
- viability, T/C [30]: 93.9%
- viability, T/C (second compound 10 µM, first compound 0.316 µM): 102%
- viability, T/C (second compound 10 µM, first compound 1 µM): 92.2%
- viability, T/C (second compound 10 µM, first compound 3.16 µM): 76.4%
- viability, T/C (second compound 10 µM, first compound 10 µM): 60%
